From PubChem BioAssay (NCI)
Several values for one entry are separate records, joined by “and”; a condition that tells them apart may be missing. Equal entries are not always repeated.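 Grown in 96-well plates, cells were treated for 48 hours with each compound at five concentrations. Insufficient inhibition: endpoint recorded as highest concentration tested. The concentration for 50% growth inhibition is given as GI50. TGI: concentration producing complete growth inhibition.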

Legend:
Test in all cases: inhibition of tumour cell growth, NCI panel, 48 h
IGROV1 ovarian = tested on: IGROV1 ovarian
PC-3 prostate = tested on: PC-3 prostate
NCI-H460 lung = tested on: NCI-H460 lung
NCI-H522 lung = tested on: NCI-H522 lung
SK-MEL-28 melanoma = tested on: SK-MEL-28 melanoma
OVCAR-3 ovarian = tested on: OVCAR-3 ovarian
K-562 leukemia = tested on: K-562 leukemia
MCF7 breast = tested on: MCF7 breast
U251 CNS = tested on: U251 CNS
OVCAR-8 ovarian = tested on: OVCAR-8 ovarian

Row | SMILES | GI50 (IGROV1 ovarian) | TGI (IGROV1 ovarian) | GI50 (PC-3 prostate) | TGI (PC-3 prostate) | GI50 (NCI-H460 lung) | TGI (NCI-H460 lung) | GI50 (NCI-H522 lung) | TGI (NCI-H522 lung) | GI50 (SK-MEL-28 melanoma) | TGI (SK-MEL-28 melanoma) | GI50 (OVCAR-3 ovarian) | TGI (OVCAR-3 ovarian) | GI50 (K-562 leukemia) | TGI (K-562 leukemia) | GI50 (MCF7 breast) [µM] | TGI (MCF7 breast) [µM] | GI50 (U251 CNS) [µM] | TGI (U251 CNS) | GI50 (OVCAR-8 ovarian) | TGI (OVCAR-8 ovarian)
1 | CC(C)(O)C1CCC(Nc2ccc3ncc(-c4cccc(C(F)(F)F)c4)n3n2)CC1 (stereo unspecified) | 2.48 µM | 11.6 µM | 0.815 µM | 12.7 µM | 2.7 µM | 12.1 µM | 1.73 µM | 5.92 µM | 1.6 µM | 3.91 µM | 2.99 µM | 13.3 µM | 2.27 µM | 11.9 µM | 2.75 | 12.5 | 2.36 | 11.9 µM | 2.97 µM | 13.4 µM
2 | C=C1CC2(C[C@@H](c3ccccc3)O[C@@H](c3ccccc3)C2)OC1=O (stereo partly specified) |  | 8.26 µM |  | 14.5 µM |  | 23.3 µM |  | 3.02 µM |  | 3.83 µM |  | 6.07 µM |  | 7.51 µM |  | 5.73 |  | 28.9 µM |  | 7.48 µM
3 | Cn1ccnc1C(=O)/C=C/c1ccc(CC(=O)Nc2ccc(S(F)(F)(F)(F)F)cc2)cc1 | 2.62 µM | 7.29 µM | 0.534 µM | 2.03 µM | 2.25 µM | 7.58 µM | 3.43 µM | 6.91 µM | 2.83 µM | 5.88 µM | 2.18 µM | 4.91 µM | 0.549 µM | 16.7 µM | 0.625 | 5.54 | 0.898 | 3.07 µM | 4.94 µM | 16.5 µM
4 | CC(CN1CCN(C)CC1)CN1c2ccccc2Sc2ccc(C(F)(F)F)cc21 (stereo unspecified) | 2.77 µM | 10.2 µM | 2.09 µM | 5.21 µM | 1.93 µM | 3.84 µM | 1.79 µM | 3.37 µM | 1.91 µM | 3.42 µM | 2.04 µM | 4.16 µM | 1.76 µM | 4.21 µM | 1.64 | 3.16 | 1.68 | 3.12 µM | 1.76 µM | 3.34 µM
5 | COc1ccn2c(C(C)=O)cc(C(=O)c3ccc4c(c3)Sc3ccccc3N4)c2c1 | 0.164 µM | > 100 µM | 0.129 µM | > 100 µM | 0.113 µM | > 38 µM | 0.0321 µM | 0.248 µM | 0.884 µM | > 100 µM | 0.0801 µM | 0.206 µM | 0.0643 µM | > 100 µM | 0.0893 | > 100 | 0.132 | > 100 µM | 0.14 µM | > 100 µM
6 | COC1(O)C(=O)c2ccccc2OC1(OC)c1ccccc1 (stereo unspecified) |  | > 100 µM |  | > 100 µM |  | > 100 µM |  | > 100 µM |  | > 100 µM |  | > 100 µM |  | > 100 µM |  | > 100 |  | > 100 µM |  | > 100 µM
7 | CS(=O)(=O)c1ccc(-c2cnc(N)c(C(=O)Nc3ccccc3)n2)cc1 | 5.17 µM | > 100 µM | > 100 µM | > 100 µM | 10.7 µM | > 100 µM | > 54.8 µM | > 100 µM | 98.6 µM | > 100 µM | 15.7 µM | > 100 µM | 5.34 µM | > 100 µM | 10.8 | > 100 | 31.7 | > 100 µM | > 45 µM | > 100 µM
8 | C/C(=C\c1ccn(-c2ccc(N)c(F)c2)n1)[C@@H]1C[C@@H]2O[C@]2(C)CCC[C@H](C)[C@H](O)[C@@H](C)C(=O)C(C)(C)[C@@H](O)CC(=O)O1 | 0.0599 µM | > 50 µM | 0.0139 µM | > 50 µM | 0.00938 µM | > 50 µM | 0.00973 µM | 0.0321 µM | 7.03 µM | > 50 µM | 0.00815 µM | 0.0747 µM | 0.00912 µM | > 50 µM | 0.00601 | > 50 | < 0.005 | > 50 µM | 0.0239 µM | > 50 µM
9 | C=CCNCCCN1C(=O)c2ccc3c4c(ccc(c24)C1=O)C(=O)N(CCCNCC=C)C3=O | 0.325 µM | 1.2 µM | 0.589 µM | 11 µM | 0.195 µM | 0.448 µM | 0.336 µM | 1.34 µM | 1.06 µM | 2.6 µM | 0.298 µM | 0.889 µM | 0.296 µM | 1.48 µM | 0.157 | 0.336 | 0.269 | 1 µM | 0.312 µM | 2.11 µM
10 | COc1ccc(C(=O)/C=C/c2c(C(F)(F)F)nc3sccn23)cc1OC | 3.15 µM | > 100 µM | 5.39 µM | > 100 µM | 1.94 µM | 6.65 µM | 2.91 µM | 80.7 µM | 8.48 µM | > 100 µM | 2.12 µM | 6.14 µM | 2.25 µM | > 100 µM | 0.766 | 34.9 | 1.87 | > 100 µM | 2.4 µM | > 100 µM
11 | C=C(C)C(=O)OC1CC2=CC(CC3(C)OC3C3OC(=O)C(=C)C13)OC2=O (stereo unspecified) |  | 38.8 µM |  | 28.1 µM |  | 35.1 µM |  | 4.18 µM |  | 26.2 µM |  | 25.4 µM | 2.62 µM | 9.8 µM |  | 14.7 |  | 32.5 µM |  | 18.1 µM
12 | O=C1/C(=C/c2ccccc2F)CNC/C1=C\c1ccccc1F | 0.809 µM and 1.2 µM | 2.49 µM and 3.19 µM | 0.295 µM and 0.551 µM | 1.07 µM and 3.2 µM | 0.693 µM and 0.458 µM | 3.29 µM and 3.3 µM | 0.772 µM and 1.3 µM | 2.73 µM and 2.8 µM | 2.02 µM and 1.79 µM | 4.7 µM and 3.63 µM | 0.89 µM and 0.309 µM | 3.22 µM and 0.805 µM | 0.27 µM and 0.341 µM | 2.27 µM and 2.63 µM | 0.305 | 1.39 | 0.165 | 0.362 µM and 0.372 µM | 0.338 µM and 0.369 µM | 4.27 µM and 2.91 µM
13 | COc1cc(C(O)c2nc3ccccc3s2)cc(OC)c1OC (stereo unspecified) | 34.3 µM | > 100 µM | 15.9 µM | > 100 µM | 30.9 µM | > 100 µM | 29.2 µM | > 100 µM | > 100 µM | > 100 µM | 88.9 µM | > 100 µM | 3.6 µM | > 100 µM | 41.3 | > 100 | > 100 | > 100 µM | > 100 µM | > 100 µM
14 | NC(=O)c1oc([N+](=O)[O-])c(-c2ccccc2)c1-c1ccccc1 |  | 31.5 µM |  | 47.9 µM |  | > 100 µM |  | 31.5 µM |  | > 100 µM |  | 22.7 µM |  | 59.6 µM |  | > 100 |  | 71.1 µM |  | 68.2 µM
